# US12312330B2, “1-((S)-1-(3-chloro-5-fluoro-2-((4-(1h-pyrazol-1-yl)-2-methylquinolin-8-yloxy)methyl)phenyl)ethyl)-imidazolidine-2,4-dione derivatives and related compounds as bradykinin (BK) B2 receptor antagonist for treating skin diseases” (Pharvaris GmbH, priority 2019, dated 2025)
# Target: T1, human bradykinin B2 receptor (hB2R) (Homo sapiens, UniProt P30411)
# T1 sequence (P30411 1-391): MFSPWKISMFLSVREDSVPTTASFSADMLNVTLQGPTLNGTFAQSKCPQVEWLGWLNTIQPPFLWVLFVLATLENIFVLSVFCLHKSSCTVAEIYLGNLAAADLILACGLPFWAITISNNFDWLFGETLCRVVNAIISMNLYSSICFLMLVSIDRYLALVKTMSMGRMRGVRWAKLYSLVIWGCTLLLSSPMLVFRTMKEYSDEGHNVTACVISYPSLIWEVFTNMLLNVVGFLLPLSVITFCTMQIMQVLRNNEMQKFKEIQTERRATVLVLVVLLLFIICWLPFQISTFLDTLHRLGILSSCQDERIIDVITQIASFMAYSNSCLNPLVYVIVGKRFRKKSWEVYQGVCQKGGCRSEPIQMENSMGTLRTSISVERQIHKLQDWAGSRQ
# Experiment: human bradykinin B2 receptor calcium mobilization (hB2R-CaM) assay
# Assay type: cell-based
# Conditions: antagonism of bradykinin (EC80) induced calcium mobilization, B2 Bradykinin Receptor Stable Cell Line HTS041C, 25 min pre-incubation; read-out: IC50-value towards human bradykinin B2 receptor (hB2R)
# Excerpt: The following cell-based human bradykinin B2 receptor calcium mobilization (hB2R-CaM) assay was used to determine the antagonistic activity of compounds selected from the example compounds Nos. 1 to 107 towards human bradykinin B2 receptor (hB2R). The assay is defined herein as a standard in vitro B2 receptor activity assay, which can be used to determine IC50 values of the compounds according to the present invention, e. g. the compounds shown in Examples 1-13.
# The antagonistic activity of compounds according to the present invention was investigated with the hB2R-CaM assay using the B2 Bradykinin Receptor Stable Cell Line HTS041C (Eurofins, St. Charles MO) and the FLIPR Calcium 6 Assay Kit (Molecular Devices, Wokingham, UK) according to the instructions of the providers. CaM assay measurements were performed with a Flexstation 3 System (Molecular Devices) which allows the precise addition of compounds (B2R antagonists) and bradykinin (B2R agonist) to the cells and adjacent continuous recording of the time-dependent CaM assay signals.
# HTS041C cells were cultured in high glucose DMEM cell culture medium (Lonza) supplemented with 10% heat-inactivated FBS (PAN Biotech), 10 mM HEPES, Penicillin/Streptomycin (200 U/mL, 200 μg/mL), lx non-essential amino acids (Lonza), and 250 μg/mL G418 (Invivogen) in cell incubator at 37° C. in a 5% CO2 atmosphere. One day before the CaM assay experiments cells were seeded in 200 μL DMEM cell culture medium with reduced FBS (5%) and without G418 on clear bottom black 96 well plates (ThermoFisher #165305). Cell starvation was carried out by incubation (37° C., 5% CO2) of 70.000 cells/well for 24 h to 28 h. Immediately prior calcium dye-loading the medium was carefully aspirated and cells were washed with Hank's balanced salt solution (HBSS, Gibco) containing Ca^2+, Mg^2+ and 20 mM HEPES, adjusted to pH 7.4 (HBSS+).
# For calcium dye-loading one FLIPR 6 assay aliquot was dissolved in 20 mL HBSS+. 150 μL of the dye loading solution was added to cell plate and incubated for 120 min at 37° C. and 5% CO2. After dye loading the cell plate was immediately transferred to the pre-warmed (37° C.) Flexstation 3 System for CaM assaying.
# Freshly prepared compound (B2 receptor antagonists) dilution series (8 pt, n=2) and bradykinin (B2 receptor agonist) solution in non-binding plates (Costar) were transferred to the Flexstation System (source plate) shortly before starting the experiment. Bradykinin was added in EC80 concentration determined in n>3 preliminary experiments with 8 pt concentration response curves (n=8)). CaM assay was executed by Flexstation 3 System starting with recording of calcium-sensitive dye fluorescence in bottom-read Flex modus with ex/em=485 nm/525 nm, cut off(em)=515 nm After 20 s, 50 μL of 4-fold concentrated compound dilutions were added to the cells resulting in a final DMSO (Sigma) concentration of 0.1% in the cell plate. CaM signals were monitored for 80 s after additions for detection of potential agonistic activities. Prior to bradykinin stimulus compound- and vehicle-treated cells were incubated for 25 min at 37° C. within the Flexstation System. Then 50 μL of a 5-fold concentrated bradykinin solution (HBSS+, 0.1% DMSO) was added to trigger CaM signals (Read out: Max-Min values) which were measured for 80 s post bradykinin stimulus.
# IC50 determinations were performed by 4 parameter logistic model curve fitting of the 8 pt (n=2) compound concentration response curves using XLFIT (IDBS) software.
row,Compound,IC50 [nM]
1,Cc1cc(-n2cc(F)cn2)c2cccc(OCc3c(Cl)cc(F)cc3[C@H](C)N3C[C@H](O)CC3=O)c2n1 [compound 95],11 to 100
2,"Cc1cc(-n2cc(F)cn2)c2cccc(OCc3c(Cl)cc(F)cc3[C@H](C)N3CCC(C)C3=O)c2n1 (single isomer, unassigned) [compound 58]",11 to 100
3,Cc1cc(-n2cc(F)cn2)c2cccc(OCc3c(Cl)cc(F)cc3[C@H](C)N3C(=O)[C@@H](C)NC(=O)[C@@H]3C)c2n1 [compound 99],11 to 100
4,Cc1cc(-n2cc(F)cn2)c2cccc(OCc3c(Cl)cc(F)cc3[C@H](C)N3CCN(C(=O)OC(C)(C)C)[C@@H](C)C3=O)c2n1 [compound 80],101 to 500
5,Cc1cc(-n2cc(F)cn2)c2cccc(OCc3c(Cl)cc(F)cc3[C@H](C)N3CCNCC3=O)c2n1 [compound 57],11 to 100
6,Cc1cc(-n2cc(F)cn2)c2cccc(OCc3c(Cl)cc(F)cc3[C@H](C)N3CCCCC3=O)c2n1 [compound 16],11 to 100
7,"Cc1cc(-c2ncnn2C)c2cccc(OCc3c(Cl)cc(F)cc3[C@H](C)N3C(=O)N(C4CC4)C(=O)C3C)c2n1 (single isomer, unassigned) [compound 56]",11 to 100
8,"COC1CN([C@@H](C)c2cc(F)cc(Cl)c2COc2cccc3c(-n4cc(F)cn4)cc(C)nc23)C(=O)O1 (single isomer, unassigned) [compound 51]",11 to 100
9,Cc1cc(-n2cc(F)cn2)c2cccc(OCc3c(Cl)cc(F)cc3[C@H](C)N3CC[C@H](O)C3=O)c2n1 [compound 28],101 to 500
10,Cc1cc(-n2cc(F)cn2)c2cccc(OCc3c(Cl)cc(F)cc3[C@H](C)N3CCN(C(=O)OC(C)(C)C)[C@H](C)C3=O)c2n1 [compound 79],101 to 500
11,"CCN1C(=O)C(C)N([C@@H](C)c2cc(F)cc(Cl)c2COc2cccc3c(-n4cc(F)cn4)cc(C)nc23)C1=O (single isomer, unassigned) [compound 29]",11 to 100
12,Cc1cc(-n2cc(F)cn2)c2cccc(OCc3c(Cl)cc(F)cc3[C@H](C)N3CCC(C)(C)C3=O)c2n1 [compound 64],11 to 100
13,"COC1CN([C@@H](C)c2cc(F)cc(Cl)c2COc2cccc3c(-n4cc(F)cn4)cc(C)nc23)C(=O)O1 (single isomer, unassigned) [compound 52]",101 to 500

# The next lines start with the values.
row,IC50 [nM],Compound
1,11 to 100,Cc1cc(-n2cc(F)cn2)c2cccc(OCc3c(Cl)cc(F)cc3[C@H](C)N3C(=O)[C@H](C)NC(=O)[C@@H]3C)c2n1 [compound 90]
2,11 to 100,Cc1cc(-n2cc(F)cn2)c2cccc(OCc3c(Cl)cc(F)cc3[C@H](C)N3C[C@H](C)OCC3=O)c2n1 [compound 38]
3,11 to 100,Cc1cc(-n2cc(F)cn2)c2cccc(OCc3c(Cl)cc(F)cc3[C@H](C)N3CC[C@@H](OC(F)F)C3=O)c2n1 [compound 89]
4,≤ 10,Cc1cc(-n2cc(F)cn2)c2cccc(OCc3c(Cl)cc(F)cc3[C@H](C)N3CCNC(=O)C3=O)c2n1 [compound 50]
5,11 to 100,"Cc1cc(-c2ncnn2C)c2cccc(OCc3c(Cl)cc(F)cc3[C@H](C)N3C[C@@H](OC(F)F)CC3=O)c2n1 [Compound No. 6, (S)-1-((S)-1-(3-chloro-5-fluoro-2-((2-methyl-4-(1-methyl-1H-1,2,4-triazol-5-yl)quinolin-8-yloxy)methyl)phenyl)ethyl)-4-(difluoromethoxy)pyrrolidin-2-one]"
6,≤ 10,Cc1cc(-n2cc(F)cn2)c2cccc(OCc3c(Cl)cc(F)cc3[C@H](C)N3CCN(C)[C@@H](C)C3=O)c2n1 [compound 92]
7,11 to 100,CCC1CCC(=O)N([C@@H](C)c2cc(F)cc(Cl)c2COc2cccc3c(-n4cc(F)cn4)cc(C)nc23)C1 (stereo partly shown) [compound 66]
8,≤ 10,Cc1cc(-n2cc(F)cn2)c2cccc(OCc3c(Cl)cc(F)cc3[C@H](C)N3C[C@H](O)CCC3=O)c2n1 [compound 82]
9,≤ 10,Cc1cc(-c2ncnn2C)c2cccc(OCc3c(Cl)cc(F)cc3[C@H](C)N3CCOCC3=O)c2n1 [compound 34]
10,≤ 10,Cc1cc(-n2cc(F)cn2)c2cccc(OCc3c(Cl)cc(F)cc3[C@H](C)N3C[C@@H](O)CCC3=O)c2n1 [compound 45]
11,≤ 10,Cc1cc(-c2ncnn2C)c2cccc(OCc3c(Cl)cc(F)cc3[C@H](C)N3C[C@@H](C)OCC3=O)c2n1 [compound 40]
12,≤ 10,Cc1cc(-c2ncnn2C)c2cccc(OCc3c(Cl)cc(F)cc3[C@H](C)N3C[C@H](C)NC(=O)C3=O)c2n1 [compound 68]
